# Laboratory results reported in PMC11477289, “Low-Basicity 5-HT6 Receptor Ligands from the Group of Cyclic Arylguanidine Derivatives and Their Antiproliferative Activity Evaluation” (International Journal of Molecular Sciences, 2024).
# Key:
# [1] = target: T1, CYP2D6 (Homo sapiens, UniProt P10635); experiment: CYP2D6 P450-Glo assay (drug–drug interactions); format: biochemical; details: 0.01–25 µM
# T1 construct: purchased Promega
# Experimental: (§1) The potential risk of drug–drug interactions (DDIs) was examined in luminescence-based CYP3A4 and CYP2D6 P450-Glo assays (Promega, Madison, WI, USA) (Figure 2A,B).
# (§2) The influence on CYP3A4 and CYP2D6 activity by ligands was analyzed with luminescent CYP3A4 P450-Glo and CYP2D6 P450-Glo^TM (Madison, WI, USA). The compounds were tested in triplicate. The bioluminescence signal was measured with a microplate reader, Spark Cyto (Tecan, Männedorf, Switzerland), in the luminescence mode. Compounds were tested in triplicate in the range of 0.01–25 µM for both isoforms’ P450 cytochrome. KE and QD were used as the reference compounds for CYP3A4 and CYP2D6, respectively.
# [2] = tested on: HEK293; experiment: Cytotoxic activity on HEK293; format: cell-based; details: Homo sapiens
# Text: Table 6 Extended receptor affinity study, with functional tests and cytotoxic activity of selected compounds on HEK293. | column: HEK293 / IC50 [µM]
# [3] = target: T2, CYP3A4 (Homo sapiens, UniProt P08684); experiment: CYP3A4 P450-Glo assay (drug–drug interactions); format: biochemical; details: 0.01–25 µM
# T2 construct: purchased Promega
# Experimental: as §1, §2
# T2 sequence (P08684 whole entry): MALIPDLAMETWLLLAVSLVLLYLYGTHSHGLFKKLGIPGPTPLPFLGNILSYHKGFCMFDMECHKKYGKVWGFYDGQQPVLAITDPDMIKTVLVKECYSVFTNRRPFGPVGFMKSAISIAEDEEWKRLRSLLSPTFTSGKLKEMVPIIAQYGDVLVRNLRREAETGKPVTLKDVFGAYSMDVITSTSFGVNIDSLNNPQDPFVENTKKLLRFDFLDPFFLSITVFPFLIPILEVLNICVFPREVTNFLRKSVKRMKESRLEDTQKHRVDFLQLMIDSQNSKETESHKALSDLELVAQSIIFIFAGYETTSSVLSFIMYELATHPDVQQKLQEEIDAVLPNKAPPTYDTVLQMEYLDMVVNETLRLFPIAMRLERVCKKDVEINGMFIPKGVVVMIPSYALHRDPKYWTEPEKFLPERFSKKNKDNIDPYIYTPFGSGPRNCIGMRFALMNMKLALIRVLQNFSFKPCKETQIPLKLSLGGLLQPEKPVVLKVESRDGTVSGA
# T1 sequence (P10635 whole entry): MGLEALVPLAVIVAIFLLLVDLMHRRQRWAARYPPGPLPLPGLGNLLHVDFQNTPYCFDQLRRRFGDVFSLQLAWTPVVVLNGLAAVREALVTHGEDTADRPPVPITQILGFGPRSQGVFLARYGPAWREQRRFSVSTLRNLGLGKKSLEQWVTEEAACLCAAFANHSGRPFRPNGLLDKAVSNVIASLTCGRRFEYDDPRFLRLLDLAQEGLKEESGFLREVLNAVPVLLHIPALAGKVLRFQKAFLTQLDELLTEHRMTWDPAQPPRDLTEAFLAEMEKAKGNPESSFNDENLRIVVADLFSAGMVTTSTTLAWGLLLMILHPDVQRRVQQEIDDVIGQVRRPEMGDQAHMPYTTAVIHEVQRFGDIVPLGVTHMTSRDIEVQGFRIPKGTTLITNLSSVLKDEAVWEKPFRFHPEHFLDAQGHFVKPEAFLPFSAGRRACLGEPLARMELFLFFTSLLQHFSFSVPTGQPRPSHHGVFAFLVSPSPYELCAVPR
smiles,measurement,setting,value
"CC1NC(NS(=O)(=O)c2cccc3ccccc23)=Nc2cccc(Cl)c21 (stereo not drawn) [PR 68, N -(5-chloro-4-methyl-3,4-dihydroquinazolin-2-yl)naphthalene-1-sulfonamide]","drug–drug interactions, CYP2D6 activity",[1],should not exhibit drug–drug interactions
same,IC50,[2],81.8 µM
same,"drug–drug interactions, CYP3A4 activity",[3],should not exhibit drug–drug interactions
